Measurements from patent publication US20040029134A1, “P53-associated Parkin-like cytoplasmic protein, and related compositions and methods” (priority 2002, published 2004).

System: Parc-overexpressing (Flag-Parc/U2OS) cells
Test: Subcellular p53 localization by immunofluorescent staining (anti-p53 1801)
Type: cell-based, human
Settings: etoposide 1 μM for 6 hours
Source text: FIGS. 10A and 10B Parc over-expression abrogates stress-induced nuclear localization of endogenous p53 in U2OS cells. […] The etoposide-treated cells were immunostained with anti-p53 antibody (1801) (visualized by fluorescence) and counterstained with DAPI to visualize the nuclei. (B) Quantification of subcellular p53 localization in parental U2OS and in Parc-overexpressing (Flag-Parc/U2OS) cell lines after the cells were immunostained with the anti-p53 antibody (1801).
For the p53 cytoplasmic sequestration assay, cells were transfected with 30 ng/well CMV-p53 and 150 ng/well CMV-Parc. 24 hours post-transfection cells were fixed with 4% paraformaldehyde for 20 min. on ice, rehydrated for 5 min in serum-free DMEM and permeabilized with 0.2% Triton X100 (Fisher) for 10 min on ice. Cells were incubated in 1% bovine serum albumin (BSA) (Sigma)/Phosphate Buffered Salt solution (PBS) (Cellgro) for 30 min. Primary p53-specific monoclonal (for endogenous p53 immunostaining) (DO-1, 1801, Santa Cruz) or polyclonal (for transfected p53 immunostaining) (FL-393, Santa Cruz) antibodies or anti-Flag monoclonal antibody (for transfected Flag-Parc and Flag-Myc immunostaining) (Santa Cruz) were added in 1% BSA/PBS for 45 min at room temperature. […]

COc1cc([C@@H]2c3cc4c(cc3[C@@H](O[C@@H]3O[C@@H]5CO[C@@H](C)O[C@H]5[C@H](O)[C@H]3O)[C@H]3COC(=O)[C@H]23)OCO4)cc(OC)c1O [etoposide]
cells with nuclear p53 staining: less than 30%
